# Where two headings read alike, the source gives them in different places.
# What was measured:
# Trich. Foetus ISM 66/23 = assay: MIC protozoa, Trichomonas foetus (Table 2); assay type: cell-based; conditions: Tritrichomonas foetus, +10% serum (head); Kupferberg Trichomonas broth with 5% of horse serum; read-out: MIC
# Method in brief: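 Test substance was added at set concentrations to Kupferberg Trichomonas broth with 5% horse serum, inoculated with T. vaginalis or T. foetus at 3.5% of medium volume. Growth was assessed after 24 or 48 h incubation at 30° or 37 °C. MIC is the minimum concentration inhibiting growth.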
# Diplococcus Pneum. ISM = assay: M.I.C. in vitro, gram+ Diplococcus Pneum. (Table 1); assay type: cell-based; conditions: read-out: M.I.C.
# Method in brief: (§1)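 Inoculate culture media with a predetermined germ count, then add measured quantities of compound. Incubate for 24 or 48 hours at 30° or 37° C. as suited to each micro-organism. Assess growth in the broth and record the lowest inhibitory concentration in γ/ml.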
# [1] = system: Streptococ. Henclyt. 0203; assay: M.I.C. in vitro, gram+ Streptococ. Henclyt. (Table 1); assay type: cell-based; conditions: read-out: M.I.C.
# Method in brief: as §1
# Candida Albic. SKF 2270 = assay: MIC yeasts, Candida albicans (Table 2); assay type: cell-based; conditions: for MIC: Candida, Sabourand broth, read-out: MIC
# Method in brief: (§2)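 Candida inoculum (10^3 cells/ml, from 24 h cultures at 30° C) in Sabouraud broth containing graded compound concentrations.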
# Esch. Coli. SKF 12140 = assay: M.I.C. in vitro, gram- Esch. Coli (Table 1); assay type: cell-based, Escherichia Coli; conditions: Escherichia coli, read-out: M.I.C.
# Method in brief: as §1
# Proteus Vulc. ATCC 881 = assay: M.I.C. in vitro, gram- Proteus Vulc. (Table 1); assay type: cell-based; conditions: read-out: M.I.C.
# Method in brief: as §1
# Pseudom.Aer. ATCC 1014 = assay: M.I.C. in vitro, gram- Pseudom. Aer. (Table 1); assay type: cell-based, Pseudomonas Aeruginosa; conditions: Pseudomonas aeruginosa, read-out: M.I.C.
# Method in brief: as §1
# Pseudomonas Aeruginosa = assay: Antibacterial activity in vivo with topical treatment (Table 5); design: species or system female CF1 albino mice; conditions: for animals alive on the 15th day / animals dead on the 15th day: 10 animals; for % survivors: topical, 15th day
# Description: After their backs have been shaved, female CF1 albino mice weighing 18-22 g are scorched (under ether anaesthetic) for 15 seconds with a pad of brass previously immersed in boiling water (7-8% of the body surface). After 90 minutes there is applied to the scorched area 0.1 ml of a suspension of Pseudomonas Aeruginosa bacteria having 15% transmittance at 650 nm. The bacterial strain in question produces a high incidence of mortality, induced by septicemic diffusion from the point of infection. After 90 minutes, with the aid of a glass rod suitably flattened at one end, the preparation containing a known concentration of the compound under examination is applied locally. The treatment is continued for a total of six days (once per day). On the fifteenth day the percentage of survivors to the tested doses in recorded.
# The carrier used for applying the compounds under examination is an aqueous 0.75% solution of carboxymethyl-cellulose. The concentrations of the compounds tested are 2, 1, 0.5 and 0.25% by weight.
# [2] = system: Nicrosporum Canis ATCC 11621; assay: MIC mildews, Microsporum canis (Table 2); assay type: cell-based; conditions: Microsporum canis, Sabourand broth, read-out: MIC
# [3] = system: Candida Albicans SKF 2270; assay: Speed of sterilising action, Candida Albicans (Table 3); assay type: cell-based
# Description: The strains, inoculants, culture broths and experimental methods are as already seen for calculating the M.I.C. in vitro. The antimicrobic substances were tested at concentrations of 0.1, 0.25, 0.5 and 1 g/l, the contact times taken into consideration are 0, 1, 2.5, 5, 7.5, 10, 15, 30 and 60 minutes.
# The samples which at the 7th day of incubation still had no growth of micro-organisms which could be observed macroscopically and/or microscopically were considered sterile.
# The results are recorded in Table 3 in terms of sterilization time expressed in minutes.
# [4] = system: Candida Pseudotrop. ATCC 2512; assay: MIC yeasts, Candida pseudotropicalis (Table 2); assay type: cell-based; conditions: Candida, Sabourand broth, read-out: MIC
# Method in brief: as §2
# Candida albicans = assay: Activity upon vaginal candidiasis in mice (Table 7); assay type: in vivo, female Swiss mice (Charles River CD1); conditions: for no. of animals surviving: 8 animals
# Description: The treatment groups consist each of 8 female Swiss mice (Charles River CD1) of average weight 20 g. The animals are infected with 0.025 ml of a 24 hour culture of Candida albicans, equal to 10^6 cellules.
# 0.025 ml of a suspension in lanoline of the compound to be tested, at the desired concentration, are applied locally twice a day for a week, the first treatment being started five hours after infection.
# The control group is treated with the lanoline alone in the same way. On the eighth day vaginal washings are carried out with 0.025 ml of sterile physiological solution, and the liquid is sown in Petri dishes containing Bacto Biggy Agon Difco as a selective growing medium for the Candida.
# After 48 hours of incubation of the dishes at 30° C. a count is taken of the colonies which have grown. Assessment of the activity is quantized using the indices listed here below:
# The results are expressed as percentages of the average index of seriousness of the infection A.D.I. (Average Degree of Infection) in the animals treated with respect to the animals in the control group.
# The substances under examination were tested at concentrations of 5 and 3% by weight.
# [5] = system: gram+ and gram- bacterial strains; assay: Activity in vitro on gram+ and gram- bacteria, overall; assay type: cell-based; conditions: gram positive and gram negative strains, low concentrations
# Description: The method for evaluating the activity in vitro against bacteria, fungi and protozoa consists in introducing calculated quantities of the substance, the activity of which it is desired to test, into culture media already inoculated with a predetermined number of test germs.
# After 24 or 48 hours of incubation at 30° or 37° C., according to the micro-organism being tested, it is possible to evaluate the growth of the same in the culture broth; in this manner the minimum concentration (M.I.C.) which inhibits the growth of the micro-organisms in vitro is determined.
# In table 1 there are recorded the M.I.C. values in γ/ml of the products subject of the present invention, against certain gram+ and gram- bacterial strains, some of which are pathogenic towards human beings.
structure (smiles),measurement,setting,value
CCCCCCCCCCCC[N+](C)(C)CCOC(=O)C12CC3CC(CC(C3)C1)C2 [Example 4],MIC,Trich. Foetus ISM 66/23,5 µg/mL
same,MIC,Diplococcus Pneum. ISM; +10% serum,5 µg/mL
same,MIC,Diplococcus Pneum. ISM; without serum,0.5 µg/mL
same,MIC,[1]; +10% serum,0.3 µg/mL
same,MIC,[1]; without serum,< 0.1 µg/mL
same,MIC,Candida Albic. SKF 2270; +10% serum,20 µg/mL
same,MIC,Candida Albic. SKF 2270; without serum,0.2 µg/mL
same,"activity on Candida albicans, times greater than that of cetyl pyridine chloride",Candida Albic. SKF 2270; in the absence of serum,about 25 times
same,"activity on Candida albicans, times higher than that of cetyl pyridine chloride",Candida Albic. SKF 2270; in the presence of 10% of horse serum,5-10 times
same,MIC,Esch. Coli. SKF 12140; +10% serum,100 µg/mL
same,MIC,Esch. Coli. SKF 12140; without serum,2 µg/mL
same,MIC,Proteus Vulc. ATCC 881; +10% serum,100 µg/mL
same,MIC,Proteus Vulc. ATCC 881; without serum,2 µg/mL
same,MIC,"Pseudom.Aer. ATCC 1014; ATCC1014, +10% serum",100 µg/mL
same,MIC,"Pseudom.Aer. ATCC 1014; ATCC1014, without serum",10 µg/mL
same,animals alive on the 15th day,Pseudomonas Aeruginosa; 0.25% by weight,4
same,animals dead on the 15th day,Pseudomonas Aeruginosa; 0.25% by weight,6
same,% survivors,Pseudomonas Aeruginosa; 0.25% by weight,40%
same,animals alive on the 15th day,Pseudomonas Aeruginosa; 0.5% by weight,6
same,animals dead on the 15th day,Pseudomonas Aeruginosa; 0.5% by weight,4
same,% survivors,Pseudomonas Aeruginosa; 0.5% by weight,60%
same,animals alive on the 15th day,Pseudomonas Aeruginosa; 1% by weight,6
same,animals dead on the 15th day,Pseudomonas Aeruginosa; 1% by weight,4
same,% survivors,Pseudomonas Aeruginosa; 1% by weight,60%
same,animals alive on the 15th day,Pseudomonas Aeruginosa; 2% by weight,7
same,animals dead on the 15th day,Pseudomonas Aeruginosa; 2% by weight,3
same,% survivors,Pseudomonas Aeruginosa; 2% by weight,70%
same,efficacy in vivo (in words),Pseudomonas Aeruginosa; other concentrations considered,secure efficacy
same,MIC,"[2]; ATCC11621, +10% serum",20 µg/mL
same,MIC,"[2]; ATCC11621, without serum",0.1 µg/mL
same,sterilization time,[3]; 0.1 g/l,30 min
same,sterilization time,[3]; 0.25 g/l,10 min
same,sterilization time,[3]; 0.5 g/l,5 min
same,sterilization time,[3]; 1 g/l,1 min
same,MIC,"[4]; ATCC2512, +10% serum",50 µg/mL
same,MIC,"[4]; ATCC2512, without serum",0.1 µg/mL
same,% of healing (100-A.D.I. %),Candida albicans; 3% by weight,57.98%
same,A.D.I. (compared with controls),Candida albicans; 3% by weight,42.02%
same,average proliferation index (A.D.I),Candida albicans; 3% by weight,1.00
same,no. of animals surviving,Candida albicans; 3% by weight,8
same,proliferation index (individual),"Candida albicans; 3% by weight, eighth day",2-0-1-1-1-1--0-2
same,% of healing (100-A.D.I. %),Candida albicans; 5% by weight,84.03%
same,A.D.I. (compared with controls),Candida albicans; 5% by weight,15.97%
same,average proliferation index (A.D.I),Candida albicans; 5% by weight,0.38
same,no. of animals surviving,Candida albicans; 5% by weight,8
same,tolerance by vaginal mucous membrane,"Candida albicans; mice, local",perfectly tolerated by very delicate tissues
same,topical in vivo activity against Candida albicans (in words),"Candida albicans; mouse, in vivo","excellent topical activity ""in vivo"" even against Candida albicans"
same,antibacterial activity (in words),[5],powerful antibacterial activity at low concentrations

# Source: patent US4288609A, “Quaternary ammonium derivatives of adamantane with antimicrobic activity” (priority 1976, dated 1981)
